How the values were obtained:
LOLRI = test: Pre-emergence action at 320 g/ha against LOLRI; type: in vivo, Lolium rigidum; settings: visual scoring after about 3 weeks vs untreated controls
Summary of the method: (§1)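 Compounds were sprayed onto soil over sown seeds as emulsions or suspensions with 0.5% additive at a water rate of 600 l/ha. After about 3 weeks in the greenhouse, effect was rated visually as percent (100% = died).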

ECHGC = test: Pre-emergence action at 320 g/ha against ECHGC; type: in vivo, Echinochloa crus-galli; settings: visual scoring after about 3 weeks vs untreated controls
Summary of the method: as §1

ABUTH = test: Post-emergence action at 320 g/ha against ABUTH; type: in vivo, Abutilon theophrasti; settings: visual rating about 3 weeks after treatment vs untreated controls
Excerpt: (§2) Accordingly, the compounds of the invention have good herbicidal action against a broad spectrum of weed grasses and broad-leaved weeds and are therefore suitable for controlling unwanted vegetation by the post-emergence method. • b) Seeds of monocotyledonous and dicotyledonous weeds and crop plants are placed in sandy loam in plastic or organic planting pots, covered with soil and cultivated in a greenhouse under controlled growth conditions. 2 to 3 weeks after sowing, the test plants are treated at the one-leaf stage. The compounds of the invention, formulated in the form of wettable powders (WP) or as emulsion concentrates (EC), are then sprayed onto the green parts of the plants as aqueous suspension or emulsion with addition of 0.5% additive at a water application rate of 600 l/ha (converted). After the test plants have been kept in the greenhouse under optimum growth conditions for about 3 weeks, the activity of the preparations is rated visually in comparison to untreated controls. For example, 100% activity=the plants have died, 0% activity=like control plants. Tables 39 to 49 below show the effects of selected compounds of the general formula (I) according to Tables 1 and 2 on various harmful plants and at an application rate corresponding to 320 g/ha, which were obtained by the experimental procedure mentioned above.

AMARE = test: Pre-emergence action at 320 g/ha against AMARE; type: in vivo, Amaranthus retroflexus; settings: visual scoring after about 3 weeks vs untreated controls
Summary of the method: as §1

PHBPU [1] = test: Post-emergence action at 320 g/ha against PHBPU; type: in vivo; settings: visual rating about 3 weeks after treatment vs untreated controls
Excerpt: as §2

MATIN = test: Pre-emergence action at 320 g/ha against MATIN; type: in vivo, Tripleurospermum inodorum (Matricaria inodora); settings: visual scoring after about 3 weeks vs untreated controls
Summary of the method: as §1

VIOTR [2] = test: Pre-emergence action at 320 g/ha against VIOTR; type: in vivo, Viola tricolor; settings: dosage 320 g/ha
Summary of the method: as §1

HORMU [3] = test: Post-emergence action at 320 g/ha against HORMU; type: in vivo, Hordeum murinum; settings: visual rating about 3 weeks after treatment vs untreated controls
Excerpt: as §2

POLCO [4] = test: Post-emergence action at 320 g/ha against POLCO; type: in vivo, Fallopia convolvulus (Polygonum convolvulus); settings: visual rating about 3 weeks after treatment vs untreated controls
Summary of the method: (§3)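 Greenhouse-grown plants sprayed post-emergence at the one-leaf stage, 2 to 3 weeks after sowing, with WP or EC formulations plus 0.5% additive at 600 l/ha water, at 320 g/ha. Activity rated visually after about 3 weeks versus untreated controls (100% = plants died, 0% = like control).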

PHBPU [5] = test: Pre-emergence action at 320 g/ha against PHBPU; type: in vivo; settings: visual scoring after about 3 weeks vs untreated controls
Summary of the method: as §1

ECHCG = test: Post-emergence action at 320 g/ha against ECHCG; type: in vivo, Echinochloa crus-galli; settings: dosage 320 g/ha, visual rating about 3 weeks after treatment vs untreated controls (100% = plants died)
Excerpt: as §2

ALOMY [6] = test: Pre-emergence action at 320 g/ha against ALOMY; type: in vivo, Alopecurus myosuroides; settings: scored visually after about 3 weeks vs untreated controls (100% = plants have died)
Summary of the method: as §1

STEME = test: Pre-emergence action at 320 g/ha against STEME; type: in vivo, Stellaria media; settings: greenhouse, scored visually after about 3 weeks vs untreated controls, 100% = plants have died, 0% = like control plants
Excerpt: (§4) b) Seeds of monocotyledonous and dicotyledonous weed plants and crop plants are placed in plastic or organic planting pots and covered with soil. The compounds of the invention, formulated in the form of wettable powders (WP) or as emulsion concentrates (EC), are then applied onto the surface of the covering soil as aqueous suspension or emulsion with addition of 0.5% additive at a water application rate of 600 l/ha (converted). After the treatment, the pots are placed in a greenhouse and kept under good growth conditions for the trial plants. After about 3 weeks, the effect of the preparations is scored visually in comparison with untreated controls as percentages. For example, 100% activity=the plants have died, 0% activity=like control plants. Tables 13 to 26 below show the effects of selected compounds of the general formula (I) on various harmful plants and at an application rate corresponding to 320 g/ha, which were obtained by the experimental procedure mentioned above.

AVEFA [7] = test: Post-emergence action at 320 g/ha against AVEFA; type: in vivo; settings: visual rating about 3 weeks after treatment vs untreated controls
Summary of the method: as §3

POLCO [8] = test: Pre-emergence action at 320 g/ha against POLCO; type: in vivo, Fallopia convolvulus (Polygonum convolvulus); settings: visual scoring after about 3 weeks vs untreated controls
Summary of the method: as §1

DIGSA [9] = test: Post-emergence action at 320 g/ha against DIGSA; type: in vivo, Digitaria sanguinalis; settings: dosage 320 g/ha, visual rating about 3 weeks after treatment vs untreated controls (100% = plants died)
Summary of the method: as §3

VIOTR [10] = test: Post-emergence action at 320 g/ha against VIOTR; type: in vivo, Viola tricolor; settings: visual rating about 3 weeks after treatment vs untreated controls
Excerpt: as §2

SETVI [11] = test: Post-emergence action at 320 g/ha against SETVI; type: in vivo, Setaria viridis; settings: visual rating about 3 weeks after treatment vs untreated controls
Summary of the method: as §3

HORMU [12] = test: Pre-emergence action at 320 g/ha against HORMU; type: in vivo, Hordeum murinum; settings: greenhouse, scored visually after about 3 weeks vs untreated controls, 100% = plants have died, 0% = like control plants
Excerpt: as §4

DIGSA [13] = test: Pre-emergence action at 320 g/ha against DIGSA; type: in vivo, Digitaria sanguinalis; settings: visual scoring after about 3 weeks vs untreated controls
Summary of the method: as §1

AVEFA [14] = test: Pre-emergence action at 320 g/ha against AVEFA; type: in vivo; settings: visual scoring after about 3 weeks vs untreated controls
Summary of the method: as §1

VERPE = test: Pre-emergence action at 320 g/ha against VERPE; type: in vivo, Veronica persica; settings: visual scoring after about 3 weeks vs untreated controls
Summary of the method: as §1

SETVI [15] = test: Pre-emergence action at 320 g/ha against SETVI; type: in vivo, Setaria viridis; settings: visual scoring after about 3 weeks vs untreated controls
Summary of the method: as §1

ALOMY [16] = test: Post-emergence action against ALOMY, 320 g/ha; type: in vivo, Alopecurus myosuroides; settings: dosage 320 g/ha, visual rating about 3 weeks after treatment vs untreated controls (100% = plants died)
Summary of the method: as §3

## CC(C)OC(=O)COc1nn(-c2ccccc2F)c(-c2ccc(F)nc2)c1Br [VII-005]
LOLRI
  Pre-emergence action against LOLRI in %: 100%
ECHGC
  Pre-emergence action against ECHGC in %: 100%
ABUTH
  Post-emergence action against ABUTH in %: 80%
AMARE
  Pre-emergence action against AMARE in %: 100%
PHBPU [1]
  Post-emergence action against PHBPU in %: 90%
MATIN
  Pre-emergence action against MATIN in %: 100%
VIOTR [2]
  Pre-emergence action against VIOTR in %: 100%
HORMU [3]
  Post-emergence action against HORMU in %: 90%
POLCO [4]
  Post-emergence action against POLCO in %: 80%
PHBPU [5]
  Pre-emergence action against PHBPU in %: 80%
ECHCG
  Post-emergence action at 320 g/ha against ECHCG in %: 90%
ALOMY [6]
  Pre-emergence action at 320 g/ha against ALOMY in %: 100%
STEME
  Pre-emergence action at 320 g/ha against STEME in %: 90%
AVEFA [7]
  Post-emergence action against AVEFA in %: 100%
POLCO [8]
  Pre-emergence action against POLCO in %: 100%
DIGSA [9]
  Post-emergence action at 320 g/ha against DIGSA in %: 90%
VIOTR [10]
  Post-emergence action against VIOTR in %: 100%
SETVI [11]
  Post-emergence action against SETVI in %: 80%
HORMU [12]
  Pre-emergence action at 320 g/ha against HORMU in %: 100%
DIGSA [13]
  Pre-emergence action against DIGSA in %: 100%
AVEFA [14]
  Pre-emergence action against AVEFA in %: 90%
VERPE
  Pre-emergence action against VERPE in %: 100%
SETVI [15]
  Pre-emergence action against SETVI in %: 100%
ALOMY [16]
  Post-emergence action against ALOMY: 100%

Reference: patent US12180187B2, “1-phenyl-5-azinylpyrazolyl-3-oxyalkyl acids and their use for controlling unwanted plant growth” (BAYER AKTIENGESELLSCHAFT, priority 2019, dated 2024)
